Assay results: patent US10167257B2, “Indole derivatives for use in medicine” (IOmet Pharma Ltd., priority 2014, dated 2019)

Tests used:
TDO (A172 cells) = target: T1, TDO (A172 cells) (Homo sapiens, UniProt P48775); experiment: TDO cell-based assay (A172), kynurenine production; conditions: A172 human glioblastoma cells, 500 μM L-Trp, 48 h, kynurenine by absorbance at 490 nm
T1 construct: This assay utilised cancer cells which expressed either TDO or IDO; host or cells: A172 human glioblastoma cells
T1 sequence (P48775 whole entry): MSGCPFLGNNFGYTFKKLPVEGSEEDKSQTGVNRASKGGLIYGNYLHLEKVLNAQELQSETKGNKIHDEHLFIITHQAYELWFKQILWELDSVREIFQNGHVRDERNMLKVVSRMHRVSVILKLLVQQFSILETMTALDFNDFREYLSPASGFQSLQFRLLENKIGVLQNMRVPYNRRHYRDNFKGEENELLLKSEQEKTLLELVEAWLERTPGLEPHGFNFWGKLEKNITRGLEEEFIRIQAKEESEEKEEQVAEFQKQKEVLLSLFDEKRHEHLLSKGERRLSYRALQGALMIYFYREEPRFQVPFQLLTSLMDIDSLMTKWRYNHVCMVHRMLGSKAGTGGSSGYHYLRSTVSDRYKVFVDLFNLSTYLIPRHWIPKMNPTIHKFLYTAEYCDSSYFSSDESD
Text: (§1) Two different types of assay were employed: 1. A TDO and IDO biochemical coupled assay which utilised recombinantly produced and purified TDO and IDO enzymes in combination with the enzyme formamidase. This coupled enzyme system allowed conversion of N-formylkynurenine produced by TDO or IDO activity to kynurenine which was then quantified by fluorescence following addition of Erhlich's Reagent. 2. A cell-based assay for detecting the effect of test compounds on kynurenine production in two different cancer cell types. This assay utilised cancer cells which expressed either TDO or IDO and as such was used as a means of testing compound activity at these two enzymes in a cell-based context. The protocols for these are set out below.
(§2) A172 human glioblastoma (ATCC) were grown in DMEM+2 mM L-glutamine medium supplemented with 10% foetal bovine serum and SKOV-3 ovary adenocarcinoma (ATCC) cells were grown in McCoys 5A+L-glutamax medium supplemented with 15% foetal bovine serum. On the day of assay, cells were detached using trypsin-EDTA (0.25% v/v), re-suspended in assay media (RPMI 1640 phenol red free+L-glutamine supplemented with 10% dialysed foetal bovine serum). A172 cells were seeded at 30K cells per well and SKOV-3 cells at 40K cells per well into 96-well plates containing test samples/vehicle control together with 500 μM L-Trp. Cells were then incubated for 48 h at 37° C., 5% CO2. In SK-OV-3 cells, IFNγ was also added at 500 ng/ml for the 48 h incubation in order to induce expression of IDO. Plates were centrifuged and the supernatant was removed and incubated for 5 min in the presence of 1% Erhlich's reagent. Kynurenine levels were then quantified by measuring absorbance at 490 nm.

IDO (SKOV-3 cells) = target: T2, IDO (SKOV-3 cells) (Homo sapiens, UniProt P14902); experiment: IDO cell-based assay (SKOV-3, IFNγ-induced), kynurenine production; conditions: SKOV-3 ovary adenocarcinoma cells, IFNγ 500 ng/ml, 500 μM L-Trp, 48 h, kynurenine by absorbance at 490 nm
T2 construct: This assay utilised cancer cells which expressed either TDO or IDO; host or cells: SKOV-3 ovary adenocarcinoma cells, IFNγ-induced
T2 sequence (P14902 whole entry): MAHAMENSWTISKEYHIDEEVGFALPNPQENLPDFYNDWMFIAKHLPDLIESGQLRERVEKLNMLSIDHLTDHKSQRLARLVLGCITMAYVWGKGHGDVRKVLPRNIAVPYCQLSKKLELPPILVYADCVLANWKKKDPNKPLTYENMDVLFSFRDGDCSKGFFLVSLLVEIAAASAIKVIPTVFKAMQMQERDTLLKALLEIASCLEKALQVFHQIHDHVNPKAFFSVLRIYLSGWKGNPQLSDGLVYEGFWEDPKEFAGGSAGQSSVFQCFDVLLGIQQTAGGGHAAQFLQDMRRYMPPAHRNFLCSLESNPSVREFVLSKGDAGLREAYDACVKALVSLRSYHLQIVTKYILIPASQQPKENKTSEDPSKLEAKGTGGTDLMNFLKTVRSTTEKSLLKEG
Text: as §1, §2

TDO cellular assay (A172) pIC50 (TDO (A172 cells)) | IDO cellular assay (SKOV3) pIC50 (IDO (SKOV-3 cells)) | SMILES
− (− = pIC50 <4.50) | + (+ = pIC50 4.50-<5.00) | O=C(NC1(c2ccccc2)CC1)c1cc2cc(O)ccc2[nH]1 [Compound 187]
− (− = pIC50 <4.50) | +++ (+++ = pIC50 ≥5.50) | Cn1cc(C2(NC(=O)c3cc4cc(Br)ccc4[nH]3)CC2)cn1 [Compound 263]
+ (+ = pIC50 4.50-<5.00) | ++ (++ = pIC50 5.00-<5.50) | CC(NC(=O)c1cc2cc(F)ccc2[nH]1)c1cccc(F)c1 (stereo not drawn) [Compound 22]
− (− = pIC50 <4.50) | + (+ = pIC50 4.50-<5.00) | C[C@H](NC(=O)c1cc2ccc(F)cc2[nH]1)c1ccccc1 [Compound 45]
− (− = pIC50 <4.50) | +++ (+++ = pIC50 ≥5.50) | Cc1cc(C2(NC(=O)c3cc4cc(C#N)ccc4[nH]3)CC2)no1 [Compound 219]
− (− = pIC50 <4.50) | ++ (++ = pIC50 5.00-<5.50) | O=C(NCCc1nccs1)c1cc2cc(Cl)ccc2[nH]1 [Compound 110]
− (− = pIC50 <4.50) | ++ (++ = pIC50 5.00-<5.50) | Cc1ccc2[nH]c(C(=O)NCc3ccc(F)cc3)cc2c1 [Compound 27]
− (− = pIC50 <4.50) | +++ (+++ = pIC50 ≥5.50) | CC(=O)N1CCC(C(C)NC(=O)c2cc3cc(Cl)ccc3[nH]2)CC1 (stereo not drawn) [Compound 105]
− (− = pIC50 <4.50) | ++ (++ = pIC50 5.00-<5.50) | CC(NC(=O)c1cc2cc(Cl)ccc2[nH]1)C1CN(S(C)(=O)=O)C1 (stereo not drawn) [Compound 152]
− (− = pIC50 <4.50) | ++ (++ = pIC50 5.00-<5.50) | O=C(NCc1ccc(F)c(Cl)c1)c1cc2ccccc2[nH]1 [Compound 32]
− (− = pIC50 <4.50) | +++ (+++ = pIC50 ≥5.50) | CCOc1ccc2[nH]c(C(=O)N[C@H](C)c3ccccc3)cc2c1 [Compound 270]
++ (++ = pIC50 5.00-<5.50) | +++ (+++ = pIC50 ≥5.50) | CC(Cc1cnn(C)c1)NC(=O)c1cc2cc(Cl)ccc2[nH]1 (stereo not drawn) [Compound 267]
− (− = pIC50 <4.50) | +++ (+++ = pIC50 ≥5.50) | CC(C)C(NC(=O)c1cc2cc(Cl)ccc2[nH]1)c1cnn(C)c1 (stereo not drawn) [Compound 259]
− (− = pIC50 <4.50) | + (+ = pIC50 4.50-<5.00) | CC(CN(C)S(C)(=O)=O)NC(=O)c1cc2cc(Cl)ccc2[nH]1 (stereo not drawn) [Compound 154]
+ (+ = pIC50 4.50-<5.00) | +++ (+++ = pIC50 ≥5.50) | O=C(NC1(c2ccccc2)CC1)c1cc2cc(Cl)cc(F)c2[nH]1 [Compound 188]
++ (++ = pIC50 5.00-<5.50) | +++ (+++ = pIC50 ≥5.50) | O=C(NC1(c2ccccc2)CC1)c1cc2cc(Cl)c(F)cc2[nH]1 [Compound 209]
+ (+ = pIC50 4.50-<5.00) | − (− = pIC50 <4.50) | O=C(NCc1ccccc1)c1cc2ccccc2[nH]1 [Compound 10]
− (− = pIC50 <4.50) | +++ (+++ = pIC50 ≥5.50) | COc1ccc(-n2cc(C(C)NC(=O)c3cc4cc(Cl)ccc4[nH]3)cn2)cc1 (stereo not drawn) [Compound 146]
− (− = pIC50 <4.50) | ++ (++ = pIC50 5.00-<5.50) | Cc1ccnc(C(NC(=O)c2cc3cc(Cl)ccc3[nH]2)C2CC2)c1 (stereo not drawn) [Compound 107]
− (− = pIC50 <4.50) | +++ (+++ = pIC50 ≥5.50) | Cn1cc(C2(NC(=O)c3cc4cc(OC(F)(F)F)ccc4[nH]3)CCC2)cn1 [Compound 269]

More lines, now with the values behind:

SMILES | TDO cellular assay (A172) pIC50 (TDO (A172 cells)) | IDO cellular assay (SKOV3) pIC50 (IDO (SKOV-3 cells))
C[C@@H](NC(=O)c1cc2c(F)c(Cl)ccc2[nH]1)c1ccccc1 [Compound 183] | + (+ = pIC50 4.50-<5.00) | +++ (+++ = pIC50 ≥5.50)
Cn1cc(C2(NC(=O)c3cc4cc(OC(F)(F)F)ccc4[nH]3)CC2)cn1 [Compound 275] | − (− = pIC50 <4.50) | +++ (+++ = pIC50 ≥5.50)
O=C(NC1Cc2ccccc2C1)c1cc2cc(Cl)ccc2[nH]1 [Compound 116] | ++ (++ = pIC50 5.00-<5.50) | − (− = pIC50 <4.50)
C[C@@H](NC(=O)c1cc2cc(C(F)(F)F)ccc2[nH]1)c1ccccc1 [Compound 158] | − (− = pIC50 <4.50) | +++ (+++ = pIC50 ≥5.50)
COc1cccc(-n2cc(C(C)NC(=O)c3cc4cc(Cl)ccc4[nH]3)cn2)c1 (stereo not drawn) [Compound 125] | + (+ = pIC50 4.50-<5.00) | +++ (+++ = pIC50 ≥5.50)
CC(=O)N1CC(C(C)NC(=O)c2cc3cc(Cl)ccc3[nH]2)C1 (stereo not drawn) [Compound 147] | − (− = pIC50 <4.50) | +++ (+++ = pIC50 ≥5.50)
Cc1cc(C(C)NC(=O)c2cc3cc(C#N)ccc3[nH]2)no1 (stereo not drawn) [Compound 235] | − (− = pIC50 <4.50) | +++ (+++ = pIC50 ≥5.50)
O=C(NC1(c2ccccc2)COC1)c1cc2cc(Cl)cc(F)c2[nH]1 [Compound 227] | ++ (++ = pIC50 5.00-<5.50) | +++ (+++ = pIC50 ≥5.50)
Cn1cc(C2(NC(=O)c3cc4cc(C(F)(F)F)ccc4[nH]3)CC2)cn1 [Compound 168] | + (+ = pIC50 4.50-<5.00) | +++ (+++ = pIC50 ≥5.50)
O=S(=O)(NCc1cc2cc(F)ccc2[nH]1)c1ccccc1 [Compound 57] | + (+ = pIC50 4.50-<5.00) | − (− = pIC50 <4.50)
Cc1nc(C(C)NC(=O)c2cc3cc(Cl)ccc3[nH]2)no1 (stereo not drawn) [Compound 212] | + (+ = pIC50 4.50-<5.00) | ++ (++ = pIC50 5.00-<5.50)
O=C(NC1(c2ccccn2)CC1)c1cc2cc(Cl)ccc2[nH]1 [Compound 155] | − (− = pIC50 <4.50) | +++ (+++ = pIC50 ≥5.50)
O=C(NCc1nc(-c2ccccc2)no1)c1cc2cc(Cl)ccc2[nH]1 [Compound 129] | − (− = pIC50 <4.50) | ++ (++ = pIC50 5.00-<5.50)
C[C@@H](NC(=O)c1cc2cccc(F)c2[nH]1)c1ccccc1 [Compound 61] | +++ (+++ = pIC50 ≥5.50) | +++ (+++ = pIC50 ≥5.50)
CC(NC(=O)c1cc2cc(Cl)ccc2[nH]1)c1cnn(C(C)C)c1 (stereo not drawn) [Compound 135] | − (− = pIC50 <4.50) | +++ (+++ = pIC50 ≥5.50)
N#Cc1ccc2[nH]c(C(=O)NC3(c4ccc(F)cc4)COC3)cc2c1 [Compound 245] | − (− = pIC50 <4.50) | +++ (+++ = pIC50 ≥5.50)
C[C@@H](NC(=O)c1cc2ccc(C(F)F)cc2[nH]1)c1ccccc1 [Compound 180] | − (− = pIC50 <4.50) | + (+ = pIC50 4.50-<5.00)
CC(NC(=O)c1cc2cc(F)ccc2[nH]1)c1ccccn1 (stereo not drawn) [Compound 42] | − (− = pIC50 <4.50) | ++ (++ = pIC50 5.00-<5.50)
O=C(NC1(c2ccccc2)CC1)c1cc2cc(Cl)ccc2[nH]1 [Compound 128] | + (+ = pIC50 4.50-<5.00) | +++ (+++ = pIC50 ≥5.50)
